Data as given in patent US12419307B2, “Mixtures comprising indazole pesticides” (FMC Corporation, priority 2019, dated 2025).
Like-named read-outs stand apart in the source and are kept apart here.

Columns and labels:
Assay type in all cases: in vivo
[1] = tested on: silverleaf whitefly (Bemisia argentifolii Bellows and Perring); experiment: Test A: silverleaf whitefly control on cotton or soybean plants, spray, insect mortality after 13 days; conditions: Bemisia argentifolii, applied alone, read-out: % Mortality (obs)
How it was run: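 Cotton (12–14-day) or soybean (5–7-day) plants carrying whitefly eggs were sprayed with compound in 10% acetone/water with non-ionic surfactant. Plants were held 13 days at 28°C and 50–70% RH; mortality was averaged over three replicates. Mixture enhancement was judged against Colby-expected values.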

[2] = tested on: diamondback moth (Plutella xylostella L.); experiment: Test E: diamondback moth control on mustard plants, contact and/or systemic, plant damage rating after 6 days
Method: (§1) The pest control protection afforded by the mixtures or compositions is not limited, however, to these species. The analysis of enhanced activity between the mixtures or compositions was determined using Colby's equation. The average % mortality data for the test compounds alone were inserted into the Colby's equation. If the observed (obs) average % mortality was higher than “p”, the expected (exp) % mortality, the mixture or composition had enhanced effects. If the observed average % mortality was equal to or lower than the expected mortality, the mixture or composition either had no enhanced effect. For bioassays where insect feeding damage was evaluated, enhanced activity is identified when the observed plant damage is less than the expected plant damage rating; ratings ranged between 0 (no damage) and 10 (dead plant) and each value was converted to a % plant protection. 100−(Obs Plant Damage*10)
For evaluating control of diamondback moth (Plutella xylostella L.) through contact and/or systemic means, each test unit consisted of a small open container with a 10- to 12-day-old mustard plant inside. Test compounds were formulated and sprayed with 3 replications as described for Test A. After spraying, the test units were allowed to dry for 1 hour before they were infested with 30-50 neonate larvae. A black, screened cap was placed on the top of each container. The test units were held for 6 days in a growth chamber at 24-25° C. and 70% relative humidity. Each test unit was then visually assessed for plant damage and rated 0-10, where 0=undamaged and 10=plant is dead; the results are listed in Tables 6a-b.

[3] = tested on: Western Flower Thrips (Frankliniella occidentalis Pergande); experiment: Test B: Western Flower Thrips control on bean plants, plant damage rating converted to % plant protection after 7 days; conditions: for pest or weed control at 1.5 ppm / pest or weed control at 4.5 ppm / pest or weed control at 2.93 ppm / pest or weed control at 16.1 ppm: Frankliniella occidentalis, 168 h, read-out: Plant Protection (obs); for Plant Damage (obs): Table 3a; for Plant Damage (obs) / Plant Protection (obs): applied alone
How it was run: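 Sprayed 5- to 7-day-old bean (var. Soleil) plants, 3 replicates, dried 1 h, then infested with 22 to 27 adult thrips and held 7 days at 25° C, 45-55% RH. Feeding damage rated 0-10 and converted as 100−(rating×10) to % plant protection.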

[4] = tested on: fall armyworm (Spodoptera frugiperda (J. E. Smith)); experiment: Test E: fall armyworm control on corn plants, plant damage rating and mortality after 6 days; conditions: Spodoptera frugiperda, 144 h, Table 6e, read-out: Plant Protection (obs)
Method: as §1
For evaluating control of fall armyworm (Spodoptera frugiperda (J. E. Smith)) the test unit consisted of a small open container with a 4-5-day-old corn (maize) plant inside. This was pre-infested with 10-15 1-day-old larvae on a piece of insect diet. Test compounds were formulated and sprayed with 3 replications as described for Test A. After spraying of the formulated test compound, the test units were maintained in a growth chamber for 6 days at 25° C. and 70% relative humidity. Plant feeding damage was then visually assessed based on foliage consumed, and larvae were assessed for mortality. Each test unit was then visually assessed for plant damage and rated 0-10, where 0=undamaged and 10=plant is dead; the results are listed in Tables 6d-i.

[5] = tested on: Potato Leafhopper (Empoasca fabae Harris); experiment: Test C: Potato Leafhopper control on bean plants, insect mortality after 6 days; conditions: read-out: % Mortality (obs)
Method: as §1
For evaluating control of Potato Leafhopper (Empoasca fabae Harris) through contact and/or systemic means, each test unit consisted of a small open container with a 5- to 6-day-old Longio bean plant (primary leaves emerged) inside. White sand was added to the top of the soil, and one of the primary leaves was excised prior to application. Test compounds were formulated and sprayed with 3 replications as described for Test A. After spraying, the test units were allowed to dry for 1 hour before they were infested with 5 potato leafhoppers (18- to 21-day-old adults). A black, screened cap was placed on the top of each container. The test units were held for 6 days in a growth chamber at 19-21° C. and 50-70% relative humidity.

C[S+]([O-])CC(C)(C)NC(=O)c1ccc(F)c2nn(-c3cccnc3)cc12 (stereo not shown) [Cpd 2, N-[1,1-dimethyl-2-(methylsulfinyl)ethyl]-7-fluoro-2-(3-pyridinyl)-2H-indazole-4-carboxamide]
mortality at 50 ppm ([1]; 2 h, Table 2h): 0%
mortality at 250 ppm ([1]; 2 h, Table 2h): 2.9%
mortality at 50 ppm ([1]; 48 h, Table 2d): 7.5%
mortality at 250 ppm ([1]; 48 h, Table 2d): 28%
mortality at 50 ppm ([1]; Table 2a): 10.9%
mortality at 250 ppm ([1]; Table 2a): 74.5%
mortality at 50 ppm ([1]; Table 2b): 80%
mortality at 250 ppm ([1]; Table 2b): 53.3%
mortality at 50 ppm ([1]; Table 2c): 11.8%
mortality at 250 ppm ([1]; Table 2c): 75.4%
mortality at 50 ppm ([1]; Table 2e): 17.8%
mortality at 250 ppm ([1]; Table 2e): 90.2%
mortality at 50 ppm ([1]; Table 2f): 15.7%
mortality at 250 ppm ([1]; Table 2f): 90.6%
mortality at 50 ppm ([1]; Table 2g): 31.1%
mortality at 250 ppm ([1]; Table 2g): 91.7%
Plant Protection (obs) ([2]; Table 6a, 50 ppm): 0.0
Plant Protection (obs) ([2]; Table 6a, 250 ppm): 0.0
Plant Protection (obs) ([2]; Table 6b, 50 ppm): 0.0
Plant Protection (obs) ([2]; Table 6b, 250 ppm): 0.0
pest or weed control at 1.5 ppm ([3]; Table 3e, 1.5 ppm): 66.7%
pest or weed control at 4.5 ppm ([3]; Table 3e, 4.5 ppm): 43.3%
pest or weed control at 1.5 ppm ([3]; Table 3f, 1.5 ppm): 43.3%
pest or weed control at 4.5 ppm ([3]; Table 3f, 4.5 ppm): 73.3%
pest or weed control at 1.5 ppm ([3]; Table 3g, 1.5 ppm): 16.7%
pest or weed control at 4.5 ppm ([3]; Table 3g, 4.5 ppm): 33.3%
pest or weed control at 1.5 ppm ([3]; Table 3d, 1.5 ppm): 36.7%
pest or weed control at 4.5 ppm ([3]; Table 3d, 4.5 ppm): 76.7%
Plant Damage (obs) ([3]; 1.5 ppm): 13.3%
Plant Damage (obs) ([3]; 4.5 ppm): 56.7%
Plant Protection (obs) ([3]; Table 3b, 1.5 ppm): 16.7%
Plant Protection (obs) ([3]; Table 3b, 4.5 ppm): 83.3%
Plant Protection (obs) ([3]; Table 3c, 1.5 ppm): 43.3%
Plant Protection (obs) ([3]; Table 3c, 4.5 ppm): 80.0%
pest or weed control at 50 ppm [4]: 0%
pest or weed control at 250 ppm [4]: 0%
mortality at 50 ppm ([5]; Table 4a): 46.7%
mortality at 250 ppm ([5]; Table 4a): 86.7%
mortality at 50 ppm ([5]; Table 4b): 6.7%
mortality at 250 ppm ([5]; Table 4b): 85.7%
mortality at 50 ppm ([5]; Table 4c): 20%
mortality at 250 ppm ([5]; Table 4c): 73.3%

CC(C)(CS(C)(=O)=O)NC(=O)c1ccc(F)c2nn(-c3cccnc3)cc12 [Cpd 3, N-[1,1-dimethyl-2-(methylsulfonyl)ethyl]-7-fluoro-2-(3-pyridinyl)-2H-indazole-4-carboxamide]
mortality at 50 ppm ([1]; 2 h, Table 2h): 0%
mortality at 250 ppm ([1]; 2 h, Table 2h): 0%
mortality at 50 ppm ([1]; 48 h, Table 2d): 1.2%
mortality at 250 ppm ([1]; 48 h, Table 2d): 1.1%
mortality at 50 ppm ([1]; Table 2a): 25%
mortality at 250 ppm ([1]; Table 2a): 1.6%
mortality at 50 ppm ([1]; Table 2b): 0%
mortality at 250 ppm ([1]; Table 2b): 0%
mortality at 50 ppm ([1]; Table 2c): 16.1%
mortality at 250 ppm ([1]; Table 2c): 26.7%
mortality at 50 ppm ([1]; Table 2e): 1.3%
mortality at 250 ppm ([1]; Table 2e): 1.2%
mortality at 50 ppm ([1]; Table 2f): 21.2%
mortality at 250 ppm ([1]; Table 2f): 25.3%
mortality at 50 ppm ([1]; Table 2g): 18%
mortality at 250 ppm ([1]; Table 2g): 27.7%
Plant Protection (obs) ([2]; Table 6a, 50 ppm): 0.0
Plant Protection (obs) ([2]; Table 6a, 250 ppm): 0.0
Plant Protection (obs) ([2]; Table 6b, 50 ppm): 0.0
Plant Protection (obs) ([2]; Table 6b, 250 ppm): 0.0
pest or weed control at 2.93 ppm ([3]; Table 3e, 2.93 ppm): 83.3%
pest or weed control at 16.1 ppm ([3]; Table 3e, 16.1 ppm): 80%
pest or weed control at 2.93 ppm ([3]; Table 3f, 2.93 ppm): 40%
pest or weed control at 16.1 ppm ([3]; Table 3f, 16.1 ppm): 86.7%
pest or weed control at 2.93 ppm ([3]; Table 3g, 2.93 ppm): 43.3%
pest or weed control at 16.1 ppm ([3]; Table 3g, 16.1 ppm): 70%
Plant Damage (obs) ([3]; 2.93 ppm): 13.3%
Plant Damage (obs) ([3]; 16.1 ppm): 83.3%
Plant Protection (obs) ([3]; Table 3b, 2.93 ppm): 40.0%
Plant Protection (obs) ([3]; Table 3b, 16.1 ppm): 76.7%
Plant Protection (obs) ([3]; Table 3c, 2.93 ppm): 33.3%
Plant Protection (obs) ([3]; Table 3c, 16.1 ppm): 80.0%
pest or weed control at 50 ppm [4]: 0%
pest or weed control at 250 ppm [4]: 0%
mortality at 50 ppm ([5]; Table 4a): 0%
mortality at 250 ppm ([5]; Table 4a): 0%
mortality at 50 ppm ([5]; Table 4b): 13.3%
mortality at 250 ppm ([5]; Table 4b): 0%
mortality at 50 ppm ([5]; Table 4c): 6.7%
mortality at 250 ppm ([5]; Table 4c): 0%
